Measurements from patent US20150374646A1, “TREATMENT OF CANCER AND OTHER CONDITIONS USING A TRANSCRIPTION FACTOR MODULATOR” (C & C BIOPHARMA, LLC, priority 2013, published 2015).
pIC50: −log10 of the molar value.

Tests used:
[1] = system: RS4;11; test: Leukemia cell growth inhibition, CellTiter-Glo (Example 1); type: cell-based; conditions: Homo sapiens; RS4;11, ALL (B-cell); 72 hours
Description: (§1) Various human leukemia cells were grown to the logarithmic growth phase and seeded into 24-well plates. […] Treated cells were further incubated for 72 hours and then were examined for cell proliferation. Cell proliferation was determined using the CellTiter-Glo Luminescence Cell Viability assay (Promega Corporation, Madison, Wis.) according to the manufacturer's protocol. The calculated inhibition rate was determined with the following formula: Inhibition rate (%)=(1−Luminescence of experimental group/Luminescence of control group)×100. IC50 is the calculated concentration of a compound needed to inhibit half of the maximum cell growth (equivalent to cell growth in control group) based on the corresponding dose-response curve under the described experimental conditions.

[2] = system: Nalm-6 cells; test: Survival of BALB/c nude mice with Nalm-6 acute B cell lymphoblastic leukemia (Example 2); type: in vivo
Description: BALB/c nu/nu nude mice were 4 to 5 weeks old with an average weight of 22.4±1.03 grams. The mice were raised under specific pathogen-free (SPF) conditions and had access to food and water freely. Cyclophosphamide at about 130 mg/kg per day was administrated with intraperitoneal (IP) injection for 2 days. Twenty-four hours later, a suspension of 3.5×10^6 or 5×10^6 Nalm-6 cells (0.2 mL) were injected through tail vein of each BALB/c nude mouse. Five days later, the mice were randomly divided into a YT30 treated group (n=5) and a solvent control group (n=5).
Mice in the YT30 treated group were intraperitoneally injected with 200 μL of YT30 (50 mg/kg) once a day, for 5 days a week, and for 3 or 4 weeks. The mice in the solvent control group were intraperitoneally injected with the same volume of solvent (20% DMSO, 80% of 20% w/v (2-hydroxypropyl)-β-cyclodextrin in PBS), and were on the same treatment schedule as the YT30 treated group. The body weights of the mice were recorded prior to the start of the treatment and at least twice a week thereafter. The dosages were adjusted according to the body weight to conform to the 50 mg/kg/day treatment plan. Each mouse of every group was also monitored daily for any other symptoms of side effects including change in behavior, activity or posture, areas of redness and swelling, and food and water withdrawal. […] Dates of death were recorded.

[3] = system: U266; test: Leukemia cell growth inhibition, CellTiter-Glo (Example 1); type: cell-based; conditions: Homo sapiens, U-266; U266, Multiple myeloma; 72 hours
Description: as §1

[4] = system: K562R; test: as above; type: cell-based; conditions: Homo sapiens, K-562R, CML (Gleevec resistant), 72 hours
Description: as §1

[5] = system: HL60; test: as above; type: cell-based, human
Description: as §1

[6] = system: MV4-11; test: as above; type: cell-based; conditions: Homo sapiens; MV4-11, B-myelomonocytic (Biphenotypic B-cell leukemia); 72 hours
Description: as §1

[7] = system: K-562; test: as above; type: cell-based; conditions: Homo sapiens, K562; K-562, CML; 72 hours
Description: as §1

[8] = system: RCH-ACV; test: as above; type: cell-based; conditions: Homo sapiens, ALL (B-cell), 72 hours
Description: as §1

[9] = system: CCRF-CEM; test: as above; type: cell-based; conditions: Homo sapiens, ALL (T-cell), 72 hours
Description: as §1

[10] = system: Jurkat; test: as above; type: cell-based; conditions: Homo sapiens, ALL (T-cell), 72 hours
Description: as §1

[11] = system: MV4-11 cells; test: Subcutaneous MV4-11 leukemia tumor growth in NOD/SCID mice (Example 5); type: in vivo
Description: Female Nonobese Diabetic/Severe Combined Immunodeficiency (NOD/SCID) mice that were 4-6 weeks old were used in the experiment. The mice were fed under specific pathogen free (SPF) conditions. Food and water were available to the mice at will. A suspension of 1×10^7 cells per mouse B-myelomonocytic leukemia MV4-11 cells (0.2 mL) in logarithmic phase were inoculated subcutaneously into the right back of the NOD/SCID nude mice.
The general conditions of the mice and the growth of the transplanted tumor were monitored. […] The control group received an intraperitoneal (IP) injection of 0.2 mL of solvent (20% DMSO, 80% of 20% w/v (2-hydroxypropyl)-β-cyclodextrin made in PBS). […] The high dosage group received an intraperitoneal injection of 50 mg/kg/day of YT30 (0.2 mL in volume) suspended in solvent (20% DMSO, 80% of 20% w/v (2-hydroxypropyl)-β-cyclodextrin made in PBS), while the low dosage group received IP injection of 25 mg/kg/day YT30 (0.2 mL in volume). Frequency of the administration was once per day and the experiment lasted 27 days after treatment started.
The body weights of the mice were recorded prior to the start of treatment and twice every week thereafter. Each mouse of every group was monitored daily for any other symptoms of side effects including change in behavior, activity or posture, areas of redness and swelling, and food and water withdrawal. Caliper measurements of the longest perpendicular tumor diameters were performed every 2 days to estimate the tumor volume; the following formula: 4π/3×(width/2)^2×(length/2) was used to calculate the three-dimensional volume of an ellipse. The tumor inhibition rate was calculated according to tumor volume: Tumor inhibition rate by size (%)=(Tumor volume of the control group−Tumor volume of the treated group)/Tumor volume of the control group×100. The mice were euthanized on the next day after the final injection and the subcutaneous tumor nodules were taken out intact and weighed. The tumor inhibition rate was calculated again according to tumor weight: Tumor inhibition rate by weight (%)=(Tumor weight of the control group−Tumor weight of the treated group)/Tumor weight of the control group×100).

[12] = system: Nalm-6; test: Leukemia cell growth inhibition, CellTiter-Glo (Example 1); type: cell-based, human
Description: as §1

[13] = system: SR; test: as above; type: cell-based; conditions: Homo sapiens, Lymphoma, 72 hours
Description: as §1

Nc1ccccc1NC(=O)CCCCCC(=O)Nc1cccc(Br)c1 [YT30]
pIC50 [1]: 5.98 | Average life span after inoculation for IP 50 mg/KG group ([2]; IP 50 mg/kg qd for 5 days/week, 3 weeks, 5 × 10^6 Nalm-6 cells, 50 mg/kg): 48.8 ± 9.7 days | Mice that appeared to be cured ([2]; IP 50 mg/kg, 4 weeks, 3.5 × 10^6 Nalm-6 cells, euthanized 341 days after treatment start): three out of five | pIC50 [3]: 5.08 | pIC50 [4]: 5.49 | Growth inhibition (FIG. 1) ([5]; HL60 cells, 4 μM): significantly inhibit cell growth | pIC50 ([5]; Homo sapiens, HL-60, HL60, AML (subtype APL), 72 hours): 5.98 | pIC50 [6]: 5.39 | pIC50 [7]: 5.74 | pIC50 [8]: 6.10 | pIC50 [9]: 5.82 | pIC50 [10]: 6.04 | Average body weight (g, x ± s) End point ([11]; 25 mg/kg I.P. × 27 days): 21.33 ± 1.26 g | Average body weight (g, x ± s) Initial ([11]; 25 mg/kg I.P. × 27 days): 21.61 ± 1.18 g | Body weight change (%) ([11]; 25 mg/kg I.P. × 27 days): −1.0% | Tumor growth Inhibition by weight (%) ([11]; 25 mg/kg I.P. × 27 days): 38.8% | Tumor size (mm^3) ([11]; 25 mg/kg I.P. × 27 days): 1072.31 ± 296.29 mm^3 | Tumor weight (g, x ± s) ([11]; 25 mg/kg I.P. × 27 days): 1.35 ± 0.47 g | Tumor growth Inhibition by size (%) ([11]; 25 mg/kg I.P. × 27 days (low dosage)): 51.0% | Average body weight (g, x ± s) End point ([11]; 50 mg/kg I.P. × 27 days): 18.86 ± 1.38 g | Average body weight (g, x ± s) Initial ([11]; 50 mg/kg I.P. × 27 days): 21.02 ± 0.97 g | Body weight change (%) ([11]; 50 mg/kg I.P. × 27 days): −6.8% | Tumor growth Inhibition by weight (%) ([11]; 50 mg/kg I.P. × 27 days): 58.8% | Tumor size (mm^3) ([11]; 50 mg/kg I.P. × 27 days): 774.63 ± 269.10 mm^3 | Tumor weight (g, x ± s) ([11]; 50 mg/kg I.P. × 27 days): 0.91 ± 0.27 g | Tumor growth Inhibition by size (%) ([11]; 50 mg/kg I.P. × 27 days (high dosage)): 64.6% | pIC50 ([12]; Homo sapiens, NALM-6, ALL (B-cell), 72 hours): 5.63 | Growth inhibition (FIG. 1) ([12]; Nalm-6 cells, 4 μM): significantly inhibit cell growth | pIC50 [13]: 5.16
